Source: patent publication US20240277658A1, “NLRP3 ACTIVATORS FOR USE IN THE TREATMENT OF INFECTIOUS DISEASES OR CANCER BY ACTIVATING NLRP3 INFLAMMASOME” (ALBERT-LUDWIGS-UNIVERSITÄT FREIBURG, priority 2020, published 2024)
Where “and” joins values, the source holds several entries; their conditions need not be identical. Equal entries are not always repeated. Where two headings read alike, the source gives them in different places.

Columns and labels:
[1] = system: BMDCs; assay: LDH release (lytic cell death, pyroptosis) from LPS-primed BMDCs; format: cell-based, mouse; conditions: compound 50 μM; for Average (% positive control): LDH release, positive control nigericin 5 μM; for cytotoxicity at 50 µM: Mus musculus, BMDC, LPS-primed BMDCs
Summary of the method: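 LDH released into medium, detected colorimetrically, served as the pyroptosis read-out in triplicate. LPS-primed (50 ng ml^−1, 3 h) murine bone marrow-derived dendritic cells received test compounds, typically 50 μM, or nigericin (5 μM), R837 or CL097 (100 μM) for 3 hours.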

[2] = molecular target: T1, NLRP3 inflammasome (Mus musculus, UniProt Q8R4B8); assay: IL-1β release from LPS-primed BMDCs (ELISA) as readout of NLRP3 inflammasome activation; format: cell-based; conditions: compound 50 μM; for Average (% positive control): IL-1β release, positive control nigericin 5 μM; for Average IL-1β / IL-1β: LPS-primed BMDCs; for IL-1β: single replicates
T1 construct: endogenous in cells; host or cells: primary mouse bone marrow-derived dendritic cells (BMDCs), LPS-primed
Summary of the method: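 NLRP3 inflammasome activation was read out as IL-1β released into the supernatant, measured by ELISA. Murine BMDCs were primed with LPS (50 ng ml^−1, 3 hours), then incubated with compounds for 3 hours, with each condition run in three technical replicates. Nigericin at 5 μM acted as the positive control activator, and IL-1β release was also expressed as a percentage of that control.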

[3] = read-out: Average LDH release (% of max.)
[4] = single replicates, read-out: LDH release (% of max.)

T1 sequence (Q8R4B8 whole entry): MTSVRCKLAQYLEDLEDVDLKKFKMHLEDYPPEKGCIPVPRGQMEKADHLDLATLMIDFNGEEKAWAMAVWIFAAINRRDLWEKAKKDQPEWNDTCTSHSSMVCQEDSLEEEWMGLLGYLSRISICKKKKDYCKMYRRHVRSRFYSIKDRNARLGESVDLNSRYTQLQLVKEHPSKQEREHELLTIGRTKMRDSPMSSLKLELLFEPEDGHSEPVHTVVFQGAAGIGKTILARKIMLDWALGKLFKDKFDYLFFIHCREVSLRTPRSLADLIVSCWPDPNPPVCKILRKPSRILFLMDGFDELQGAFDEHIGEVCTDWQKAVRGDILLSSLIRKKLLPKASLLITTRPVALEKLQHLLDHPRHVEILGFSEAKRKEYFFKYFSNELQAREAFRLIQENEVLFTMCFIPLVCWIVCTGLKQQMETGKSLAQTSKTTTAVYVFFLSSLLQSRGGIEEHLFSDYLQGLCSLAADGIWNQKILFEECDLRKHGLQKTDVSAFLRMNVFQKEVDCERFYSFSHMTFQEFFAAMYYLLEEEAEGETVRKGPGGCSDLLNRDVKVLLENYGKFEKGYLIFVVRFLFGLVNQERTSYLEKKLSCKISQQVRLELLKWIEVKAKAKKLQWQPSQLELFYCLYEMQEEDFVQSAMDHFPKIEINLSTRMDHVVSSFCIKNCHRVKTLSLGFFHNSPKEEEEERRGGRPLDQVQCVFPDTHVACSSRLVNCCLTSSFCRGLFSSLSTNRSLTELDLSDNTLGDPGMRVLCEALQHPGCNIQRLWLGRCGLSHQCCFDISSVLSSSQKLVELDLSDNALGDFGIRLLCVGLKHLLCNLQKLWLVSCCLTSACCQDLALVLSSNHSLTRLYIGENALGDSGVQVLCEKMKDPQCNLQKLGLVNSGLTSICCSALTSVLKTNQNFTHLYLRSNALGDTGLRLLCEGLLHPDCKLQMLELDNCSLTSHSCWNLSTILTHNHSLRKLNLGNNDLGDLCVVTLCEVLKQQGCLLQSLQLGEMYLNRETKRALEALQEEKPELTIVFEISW

SMILES | Average (% positive control) [1] | cytotoxicity at 50 µM [1, 3] | cytotoxicity at 50 µM [1, 4] | Average (% positive control) [2] | Average IL-1β [2] | IL-1β [2]
COCc1cc(F)ccc1NC(=O)NC(c1nc(-c2cccnc2)no1)C(C)C (stereo not drawn) [L01.054, 1-[4-fluoro-2-(methoxy-methyl)phenyl]-3-{2-methyl-1-[3-(pyridin-3-yl)-1,2,4-oxadiazol-5-yl]propyl}urea] | 11.431 % positive control | 8.36% | 7.79% | 0.947 % positive control | 0.068 ng/mL | 0.067 ng/mL and 0.062 ng/mL and 0.074 ng/mL
COc1cccc(C)c1NC(=O)NC(c1nc(-c2cccnc2)no1)C(C)C (stereo not drawn) [L01.056, 1-(2-methoxy-6-methyl-phenyl)-3-{2-methyl-1-[3-(pyridin-3-yl)-1,2,4-oxadiazol-5-yl]propyl}-urea] | 13.256 % positive control | 9.7% | 9.34% | 0.905 % positive control | 0.065 ng/mL | 0.060 ng/mL and 0.073 ng/mL and 0.062 ng/mL
O=C(Nc1ccccc1)Nc1ccc(OC(F)(F)F)cc1 [L01.061, 1-phenyl-3-[4-(trifluoro-methoxy)phenyl]urea] | 19.349 % positive control | 14.2% | 15.9% | 6.360 % positive control | 0.456 ng/mL | 0.508 ng/mL and 0.439 ng/mL and 0.420 ng/mL
O=C(NCc1nc(-c2cccnc2)no1)Nc1cccc2cnccc12 [L01.062, 1-(isoquinolin-5-yl)-3-{[3-(pyridin-3-yl)-1,2,4-oxadiazol-5-yl]-methyl}urea] | 18.117 % positive control | 13.3% | 13.4% | 1.141 % positive control | 0.082 ng/mL | 0.084 ng/mL and 0.087 ng/mL and 0.074 ng/mL
O=C(Nc1ccccc1)Nc1ccc(NC(=O)c2ccco2)cc1 [L01.064, N-{4-[(phenylcarbamo-yl)amino]phenyl}furan-2-carboxamide] | 11.958 % positive control | 8.75% | 8.96% | 1.014 % positive control | 0.073 ng/mL | 0.065 ng/mL and 0.054 ng/mL and 0.100 ng/mL
O=C(Nc1ccccc1)Nc1ccc(NC2CCOCC2)cc1 [L01.065, 1-{4-[(oxan-4-l)amino]-phenyl}-3-phenylurea] | 12.397 % positive control | 9.07% | 8.41% | 0.928 % positive control | 0.067 ng/mL | 0.052 ng/mL and 0.070 ng/mL and 0.077 ng/mL
O=C(Nc1ccccc1)Nc1ccc2c(c1)CCC2 [L01.066, 3-(2,3-dihydro-1H-inden-5-yl)-1-phenyl-urea] | 19.592 % positive control | 14.3% | 15.6% | 3.698 % positive control | 0.265 ng/mL | 0.346 ng/mL and 0.256 ng/mL and 0.193 ng/mL
COc1cccc(NC(=O)NCc2nc(Cc3ccccc3)no2)c1 [L01.067, 3-[(3-benzyl-1,2,4-oxadiazol-5-yl)methyl]-1-(3-methoxyphenyl)-urea] | 9.336 % positive control | 6.83% | 6.48% | 0.942 % positive control | 0.068 ng/mL | 0.064 ng/mL and 0.069 ng/mL and 0.070 ng/mL
Cc1cccc(-c2noc(CN3C(=O)CN(c4ccccc4)C3=O)n2)c1 [L01.069, 3-{[3-(3-methylphenyl)-1,2,4-oxadiazol-5-yl]-methyl}-1-phenylimid-azolidine-2,4-dione] | 12.713 % positive control | 9.3% | 9.2% | 1.941 % positive control | 0.139 ng/mL | 0.131 ng/mL and 0.138 ng/mL and 0.149 ng/mL
Cc1ccc(N2C(=O)C(=O)N(Cc3nc(-c4ccsc4)no3)C2=O)cc1 [L01.071, 1-(4-methylphenyl)-3-{[3-(thiophen-3-yl)-1,2,4-oxadiazol-5-yl]-methyl}imidazolidine-2,4,5-trione] | 11.833 % positive control | 8.66% | 9.01% | 1.598 % positive control | 0.115 ng/mL | 0.116 ng/mL and 0.097 ng/mL and 0.131 ng/mL
Cc1cccc(NC(=O)Nc2ccccc2)c1 [L01.077, 3-(3-methylphenyl)-1-phenylurea] | 7.980 % positive control | 5.84% | 5.28% | 1.368 % positive control | 0.098 ng/mL | 0.067 ng/mL and 0.165 ng/mL and 0.062 ng/mL
O=C(NCc1nc(C2CC2)no1)Nc1cccc(F)c1 [L01.081, 3-[(3-cyclopropyl-1,2,4-oxadiazol-5-yl)methyl]-1-(3-fluorophenyl)urea] | 8.656 % positive control | 6.33% | 6.87% | 1.093 % positive control | 0.078 ng/mL | 0.075 ng/mL and 0.072 ng/mL and 0.088 ng/mL
CC(C)Oc1ccccc1NC(=O)NCc1nc(C2CC2)no1 [L01.083, 3-[(3-cyclopropyl-1,2,4-oxadiazol-5-yl)-methyl]-1-[2-(propan-2-yloxy)phenyl]urea] | 8.649 % positive control | 6.33% | 6.8% | 1.180 % positive control | 0.085 ng/mL | 0.080 ng/mL and 0.077 ng/mL and 0.097 ng/mL
O=C(Nc1ccccc1)Nc1cccc(NC(=O)C2CC2)c1 [L01.084, N-{3-[(phenylcarbamo-yl)amino]phenyl}cyclo-propanecarboxamide] | 8.054 % positive control | 5.89% | 6% | 1.362 % positive control | 0.098 ng/mL | 0.083 ng/mL and 0.111 ng/mL and 0.099 ng/mL
O=C(NCc1nc(-c2cccs2)no1)Nc1ccccc1 [L01.087, 1-phenyl-3-{[3-(thio-phen-2-yl)-1,2,4-oxadiazol-5-yl]meth-yl}urea] | 9.562 % positive control | 7% | 6.79% | 3.589 % positive control | 0.257 ng/mL | 0.237 ng/mL and 0.239 ng/mL and 0.296 ng/mL
Cc1ccc(NC(=O)NCc2nc(Cc3ccccc3)no2)cc1 [L01.088, 3-[(3-benzyl-1,2,4-oxadiazol-5-yl)methyl]-1-(4-methylphenyl)urea] | 7.174 % positive control | 5.25% | 5.68% | 0.866 % positive control | 0.062 ng/mL | 0.069 ng/mL and 0.058 ng/mL and 0.059 ng/mL
O=C1CN(c2ccccc2)C(=O)N1Cc1nc(-c2cccs2)no1 [L01.089, 1-phenyl-3-{[3-(thio-phen-2-yl)-1,2,4-oxadiazol-5-yl]meth-yl}imidazolidine-2,4-dione] | 10.402 % positive control | 7.61% | 8.67% | 4.526 % positive control | 0.324 ng/mL | 0.313 ng/mL and 0.316 ng/mL and 0.344 ng/mL
